According to patent US20060286173A1, “Drug delivery system for sub-tenon s capsule adminstration of fine grains” (priority 2003, published 2006):

Assay: In vitro drug release test
Assay type: physicochemical
Details: 0.1 M phosphate buffer pH 7.4, 37° C.
Experimental: This mixture was placed in a glass vessel, and thereto was added 98.5 mL of 0.1 M phosphate buffer (pH 7.4). The entire mixture was shaken in a water bath at 37° C., and the in vitro drug release test was started. […] As a control, the powder of each drug in the same amount was charged into the chamber described above, and the release test was conducted in the same manner.
2) On day 1, 2, 6, 14, 29 after starting the test, the buffer was sampled in its entirety, which was analyzed using high performance liquid chromatography. Also, after the sampling, 98.5 mL of 0.1 M phosphate buffer (pH 7.4) was freshly added, and the release test was continued.

## CC1(C)O[C@@H]2C[C@H]3[C@@H]4C[C@H](F)C5=CC(=O)C=C[C@]5(C)[C@@]4(F)[C@@H](O)C[C@]3(C)[C@]2(C(=O)CO)O1 [Fluocinolone acetonide powder, fluocinolone acetonide]
Day 1
  In vitro drug release rate (%): 57.6%
Day 2
  In vitro drug release rate (%): 73.4%
